{
  "source": "patent US6436902B1",
  "about": "“Therapeutic preparations for inhalation” (AstraZeneca AB, priority 1994, dated 2002)",
  "key": {"[1]": {"test": "Pharmacokinetic study: plasma concentration of PTH in dogs after inhalation of dry powder aerosol (RIA)", "type": "in vivo, Beagle dogs", "settings": "for Shape of serum/plasma profile after inhalation: dry powder aerosol inhaled via endotracheal tube; for Plasma concentration of PTH: PTH 1-84, inhaled dose 14 μg/kg", "procedure": "The powder formulations were compressed in dust containers and generated continuously as dry powder aerosols by a Wright Dust Feed (WDF). The aerosols were generated by scraping off the formulations from the tablets in the dust containers. The mass flow through the WDF was 8.01/min.\nThe inhaled dose (ID) was determined by measuring the inspiratory tidal volume (ITV) and the PTH concentration during inhalation.\nBeagle dogs (n=5, at each formulation) were starved for 16 hours before inhalation and the experiments were performed in the mornings.\nVenous blood samples for determination of PTH concentration were taken from the jugular vein into heparinized vacutainer tubes (2 ml). The samples were collected before dosing and at 10, 15, 20, 30, 40, 60, 90, 120, 240 and 360 minutes after start (t=0) of inhalation. The whole blood samples were centrifuged immediately, alternatively kept in ice water for maximum 20 minutes before centrifugation, and the plasma (1 ml) was sampled for PTH analysis. PTH in plasma was analyzed using radioimmunoassay (RIA) kits."}, "[2]": {"settings": "rats, intratracheal (IT) administration, cited from earlier work; for Shape of serum profile: 90 minutes experiment"}, "[3]": {"system": "ovariectomized osteopenic rats", "test": "Bone effect: mineral density of the distal femur in ovariectomized osteopenic rats", "type": "in vivo", "settings": "inhalation, 4 weeks of administration starting 6 weeks post ovariectomy", "procedure": "The bone effect is measured in ovariectomized osteopenic rats as mineral density as weight/volume of the distal femur after 4 weeks of administration; starting 6 weeks post ovariectomy."}},
  "data": [
    {"compound": "CC[C@H](C)[C@H](NC(=O)[C@H](CCC(=O)O)NC(=O)[C@H](CO)NC(=O)[C@@H](NC(=O)[C@@H](N)CO)C(C)C)C(=O)N[C@@H](CCC(N)=O)C(=O)N[C@@H](CC(C)C)C(=O)N[C@@H](CCSC)C(=O)N[C@@H](Cc1cnc[nH]1)C(=O)N[C@@H](CC(N)=O)C(=O)N[C@@H](CC(C)C)C(=O)NCC(=O)N[C@@H](CCCCN)C(=O)N[C@@H](Cc1cnc[nH]1)C(=O)N[C@@H](CC(C)C)C(=O)N[C@@H](CC(N)=O)C(=O)N[C@@H](CO)C(=O)N[C@@H](CCSC)C(=O)N[C@@H](CCC(=O)O)C(=O)N[C@@H](CCCN=C(N)N)C(=O)N[C@H](C(=O)N[C@@H](CCC(=O)O)C(=O)N[C@@H](Cc1c[nH]c2ccccc12)C(=O)N[C@@H](CC(C)C)C(=O)N[C@@H](CCCN=C(N)N)C(=O)N[C@@H](CCCCN)C(=O)N[C@@H](CCCCN)C(=O)N[C@@H](CC(C)C)C(=O)N[C@@H](CCC(N)=O)C(=O)N[C@@H](CC(=O)O)C(=O)N[C@H](C(=O)N[C@@H](Cc1cnc[nH]1)C(=O)N[C@@H](CC(N)=O)C(=O)N[C@@H](Cc1ccccc1)C(=O)O)C(C)C)C(C)C", "note": "[PTH 1-34]", "values": [
      {"measurement": "level at time molar at 10 min", "setting": "[1]; beagle, dog, plasma, inhaled or intranasal, 4 ug/kg, PTH 1-34, inhaled dose 4.0 μg/kg, 10 min after start of inhalation", "value": 0.0304, "unit": "nM"},
      {"measurement": "level at time molar at 0.25 h", "setting": "[1]; beagle, dog, plasma, inhaled or intranasal, 4 ug/kg, PTH 1-34, inhaled dose 4.0 μg/kg, 15 min after start of inhalation", "value": 0.0474, "unit": "nM"},
      {"measurement": "level at time molar at 20 min", "setting": "[1]; beagle, dog, plasma, inhaled or intranasal, 4 ug/kg, PTH 1-34, inhaled dose 4.0 μg/kg, 20 min after start of inhalation", "value": 0.0496, "unit": "nM"},
      {"measurement": "level at time molar at 0.5 h", "setting": "[1]; beagle, dog, plasma, inhaled or intranasal, 4 ug/kg, PTH 1-34, inhaled dose 4.0 μg/kg, 30 min after start of inhalation", "value": 0.0446, "unit": "nM"},
      {"measurement": "level at time molar at 40 min", "setting": "[1]; beagle, dog, plasma, inhaled or intranasal, 4 ug/kg, PTH 1-34, inhaled dose 4.0 μg/kg, 40 min after start of inhalation", "value": 0.0362, "unit": "nM"},
      {"measurement": "level at time molar at 1 h", "setting": "[1]; beagle, dog, plasma, inhaled or intranasal, 4 ug/kg, PTH 1-34, inhaled dose 4.0 μg/kg, 60 min after start of inhalation", "value": 0.026, "unit": "nM"},
      {"measurement": "level at time molar at 1.5 h", "setting": "[1]; beagle, dog, plasma, inhaled or intranasal, 4 ug/kg, PTH 1-34, inhaled dose 4.0 μg/kg, 90 min after start of inhalation", "value": 0.017, "unit": "nM"},
      {"measurement": "level at time molar at 2 h", "setting": "[1]; beagle, dog, plasma, inhaled or intranasal, 4 ug/kg, PTH 1-34, inhaled dose 4.0 μg/kg, 120 min after start of inhalation", "value": 0.0126, "unit": "nM"},
      {"measurement": "level at time molar at 4 h", "setting": "[1]; beagle, dog, plasma, inhaled or intranasal, 4 ug/kg, PTH 1-34, inhaled dose 4.0 μg/kg, 240 min after start of inhalation", "value": 0.006, "unit": "nM"},
      {"measurement": "level at time molar at 6 h", "setting": "[1]; beagle, dog, plasma, inhaled or intranasal, 4 ug/kg, PTH 1-34, inhaled dose 4.0 μg/kg, 360 min after start of inhalation", "value": 0.0076, "unit": "nM"},
      {"measurement": "level at time molar at 0 h", "setting": "[1]; beagle, dog, plasma, inhaled or intranasal, 4 ug/kg, PTH 1-34, inhaled dose 4.0 μg/kg, time 0 min (before dosing)", "value": 0.008, "unit": "nM"},
      {"measurement": "Shape of serum/plasma profile after inhalation", "setting": "[1]", "value": "pulsatile serum profile"},
      {"measurement": "Shape of serum profile", "setting": "[2]", "value": "activity diminishing rapidly thereafter"},
      {"measurement": "Time of serum peak", "setting": "[2]", "value": 15, "unit": "min"}
    ]},
    {"compound": "PTH 1-84: Human parathyroid hormone, 84 amino acid protein (SEQ ID NO: 1); given as micronised dry powder with lactose and citrate", "values": [
      {"measurement": "Plasma concentration of PTH", "setting": "[1]; 10 min after start of inhalation", "value": 0.0083, "unit": "nM"},
      {"measurement": "Plasma concentration of PTH", "setting": "[1]; 15 min after start of inhalation", "value": 0.0114, "unit": "nM"},
      {"measurement": "Plasma concentration of PTH", "setting": "[1]; 20 min after start of inhalation", "value": 0.0116, "unit": "nM"},
      {"measurement": "Plasma concentration of PTH", "setting": "[1]; 30 min after start of inhalation", "value": 0.0096, "unit": "nM"},
      {"measurement": "Plasma concentration of PTH", "setting": "[1]; 40 min after start of inhalation", "value": 0.0079, "unit": "nM"},
      {"measurement": "Plasma concentration of PTH", "setting": "[1]; 60 min after start of inhalation", "value": 0.0058, "unit": "nM"},
      {"measurement": "Plasma concentration of PTH", "setting": "[1]; 90 min after start of inhalation", "value": 0.0041, "unit": "nM"},
      {"measurement": "Plasma concentration of PTH", "setting": "[1]; 120 min after start of inhalation", "value": 0.003, "unit": "nM"},
      {"measurement": "Plasma concentration of PTH", "setting": "[1]; 360 min after start of inhalation", "value": 0.0026, "unit": "nM"},
      {"measurement": "Plasma concentration of PTH", "setting": "[1]; time 0 min (before dosing)", "value": 0.0034, "unit": "nM"},
      {"measurement": "Shape of serum/plasma profile after inhalation", "setting": "[1]", "value": "pulsatile serum profile"},
      {"measurement": "Shape of serum/plasma profile after inhalation", "setting": "[1]; listed as full-length PTH", "value": "pulsative plasma profile"},
      {"measurement": "Shape of serum profile", "setting": "[2]", "value": "plateau which did not diminish significantly during the 90 minutes"},
      {"measurement": "Effect on femur bone formation (mineral density of the distal femur)", "setting": "[3]", "value": "significant effect on femur bone formation"}
    ]}
  ]
}
